{"source": "patent US20060160785A1", "about": "“Ezetimibe polymorphs” (priority 2004, published 2006)", "key": {"[1]": {"experiment": "Transformation of ezetimibe crystal forms by heating (XRD)", "type": "physicochemical", "excerpt": "In the following examples, the forms of ezetimibe were identified using Scintag X-ray powder diffractometer model X'TRA, Cu-tube solid state detector. The sample holder was a round standard aluminum sample holder with rough zero background quartz plate with a cavity of 25 (diameter) X 0.5 mm (depth). The scanning parameters were range: 2-40 degrees two-theta; scan mode: continuous scan; step size: 0.05 deg.; and a rate of 3 deg/min.\nAfter two hours, each sample was removed and analyzed by XRD."}, "[2]": {"experiment": "Transformation under different relative humidities (XRD and KF)", "type": "physicochemical", "settings": "for Crystal form / Water content by KF: 25-30° C.", "procedure": "500 mg samples were placed in an open glass bottle at a temperature of 25° C. to 30° C., under various humidity for a sufficient time (1-14 days) for each sample to equilibrate. At the end of each time period, each sample was removed and analyzed by XRD and by KF. The results are summarized below in Tables 6-7 for starting Forms A and B, respectively."}, "[3]": {"experiment": "Effect of pressing on crystalline stability", "type": "physicochemical", "settings": "pressed 1 minute, approximately 1300 psi", "procedure": "Crystalline stability of Form A and Form B was tested by pressing each of the forms for about 1 minute under a pressure of about 1300 psi. […] Form A is also stable under pressing.\nForms A and B were studied under pressure. The forms were pressed for 1 minute under a pressure of approximately 1300 psi."}, "[4]": {"experiment": "Micronization (milling) crystal form stability", "type": "physicochemical", "procedure": "Micronization of Form B is preferably carried out by milling Form B using a feed air rate of about 6 bar and a grinding air pressure of about 5 bar, for about 20 to about 30 minutes.\nForm B was milled by a 50 mm micronizer for about 20 to 30 minutes. The feed air rate was 6.0 bar and the grinding air was 5.0 bar. The sample was analyzed before and after micronization by XRD. During micronization 65% (estimated by XRD and by KF) of Form B converted to Form A. The estimated water content is 1-2% by weight. Micronization of Form A on the other hand results in Form A."}, "[5]": {"experiment": "Particle size distribution by Malvern laser diffraction", "type": "physicochemical", "settings": "prime particles with sonication", "procedure": "A Malvern Laser Diffraction instrument was used to characterize the particle size distribution of ezetimibe. A Mastersizer S model equipped with a small cell dispersion unit MS1 with a digital dispersion unit controller was used. The measurement was done using range lens 300RF (working range 0.05-900 mcm), beam length: 2.40 mm and presentation 3NHE. In this case, a solution of dioctyl sulfosuccinate sodium salt in n-hexane was used as a dilution medium. The measurement was started after 1 minute of recirculation after suspension addition into measurement cell at speed rate 2000±10 rpm.\nThe suspension was prepared of 0.1 g sample in solution 0.065% dioctyl sulfosuccinate sodium salt in n-hexane by vortex for 10 seconds and by sonication for 30 seconds. According to the accepted rules of Good Manufacture Procedures, the sample of ezetimibe is preferably measured after a successful blank measurement (% obscuration NMT 0.1% is performed."}, "[6]": {"experiment": "Storage of micronized Form A and B mixture at 30° C., 100% RH", "type": "physicochemical", "settings": "8 days", "procedure": "(§1) 1 g mixture of micronized Form A and B was stored at 30° C. under 100% RH for 8 days. The mixture of Form A and Form B converted to 100% Form B after storage. Micronized Form B contained 4.1% water by weight based on Karl Fischer analysis. The micronized sample was analyzed before and after storage by XRD. The material was dispersed in light mineral oil before measurement for microscope observation. Form B was in the shape of needles and plates."}, "[7]": {"experiment": "Stability of Form B in water slurry", "type": "physicochemical", "procedure": "Ezetimibe Form B was stirred in soft water (25 ml) for 4 h at room temperature (heavy slurry). The mixture was filtered and washed with water (20 ml). The wet sample, after washing, was Form B. The solid was dried under vacuum at 45° C. for 18 hrs. The dry sample contained Form B (20-30% by weight) and Form A. 95% yield."}, "[8]": {"experiment": "Specific surface area (Coulter SA3100, BET)", "type": "physicochemical", "procedure": "Specific surface area was measured using the following parameters:\nInstrument: Coulter SA3100\n(§2) Table 8 illustrates the maximum particle size and specific surface area of ezetimibe Form B before and after micronization. The maximum particle size was determined by microscope observation."}, "[9]": {"experiment": "Maximum particle size by microscope observation", "type": "physicochemical", "procedure": "as §1, §2"}, "[10]": {"settings": "reported; cited from earlier work"}, "Solubility of ezetimibe": {"experiment": "Solubility of ezetimibe", "type": "physicochemical", "settings": "water"}, "[11]": {"settings": "cited from earlier work"}, "[12]": {"settings": "50 mm micronizer, 20 to 30 minutes"}}, "note": "Entries after “also recorded” stand apart in the source; their conditions may differ.", "data": [{"compound": "O=C1[C@H](CC[C@H](O)c2ccc(F)cc2)[C@@H](c2ccc(O)cc2)N1c1ccc(F)cc1", "note": "[Amorphous Form, 1-(4-fluorophenyl)-3(R)-[3-(4-fluorophenyl)-3(S)-hydroxypropyl]-4(S)-(4-hydroxyphenyl)-2-azetidinone]", "values": [{"measurement": "heat transformation result (crystal form by XRD)", "setting": "[1]; 60° C., 2 h, atmospheric oven", "result": "Amorphous Form"}, {"measurement": "heat transformation result (crystal form by XRD)", "setting": "[1]; 90° C., 2 h, atmospheric oven", "result": "Form A"}, {"measurement": "temperature at which it transforms to Form A", "setting": "[1]; heating", "result": "above 60 °C"}]}, {"compound": "O=C1[C@H](CC[C@H](O)c2ccc(F)cc2)[C@@H](c2ccc(O)cc2)N1c1ccc(F)cc1", "note": "[Form A, 1-(4-fluorophenyl)-3(R)-[3-(4-fluorophenyl)-3(S)-hydroxypropyl]-4(S)-(4-hydroxyphenyl)-2-azetidinone]", "values": [{"measurement": "Crystal form", "setting": "[2]; RH 0%, 12 days", "result": "Form A"}, {"measurement": "Water content by KF", "setting": "[2]; RH 0%, 12 days", "result": 0.2, "unit": "wt %"}, {"measurement": "Crystal form", "setting": "[2]; RH 20%, 7 days", "result": "Form A + ˜5% B*"}, {"measurement": "Water content by KF", "setting": "[2]; RH 20%, 7 days", "result": 0.2, "unit": "wt %"}, {"measurement": "Crystal form", "setting": "[2]; RH 40%, 12 days", "result": "Form A + ˜5-10% B*"}, {"measurement": "Water content by KF", "setting": "[2]; RH 40%, 12 days", "result": 0.3, "unit": "wt %"}, {"measurement": "Crystal form", "setting": "[2]; RH 80%, 12 days", "result": "Form B"}, {"measurement": "Water content by KF", "setting": "[2]; RH 80%, 12 days", "result": 4.5, "unit": "wt %"}, {"measurement": "Crystal form", "setting": "[2]; RH 100%, 1 day", "result": "Form B"}, {"measurement": "Water content by KF", "setting": "[2]; RH 100%, 1 day", "result": 4.3, "unit": "wt %"}, {"measurement": "Sample after pressing (crystal form)", "setting": "[3]", "result": "stable; also recorded: Form A + ˜5% B"}, {"measurement": "heat transformation result (crystal form by XRD)", "setting": "[1]; 60° C., 2 h, atmospheric oven", "result": "Form A"}, {"measurement": "heat transformation result (crystal form by XRD)", "setting": "[1]; 90° C., 2 h, atmospheric oven", "result": "Form A"}, {"measurement": "heat transformation result (crystal form by XRD)", "setting": "[1]; 110° C., 2 h, atmospheric oven", "result": "Form A"}, {"measurement": "stability upon heating", "setting": "[1]; even at high temperatures", "result": "stable"}, {"measurement": "crystal form after micronization", "setting": "[4]; [12]", "result": "Form A"}, {"measurement": "stability upon micronization", "setting": "[4]; milling, feed air 6 bar, grinding air 5 bar", "result": "stable"}, {"measurement": "d (0.5)", "setting": "[5]", "result": "3.18-3.33 microns"}, {"measurement": "d (0.9)", "setting": "[5]", "result": "7.95-8.05 microns"}, {"measurement": "d(0.1)", "setting": "[5]", "result": 0.39, "unit": "microns"}]}, {"compound": "O=C1[C@H](CC[C@H](O)c2ccc(F)cc2)[C@@H](c2ccc(O)cc2)N1c1ccc(F)cc1", "note": "[Micronized Form B]", "values": [{"measurement": "stability in relative humidity", "setting": "[2]; relative humidity of about 40% to about 100%", "result": "stable"}, {"measurement": "water content by Karl Fischer after storage", "setting": "[6]", "result": 4.1, "unit": "% by weight"}, {"measurement": "stability upon slurrying", "setting": "[7]", "result": "stable"}]}, {"compound": "O=C1[C@H](CC[C@H](O)c2ccc(F)cc2)[C@@H](c2ccc(O)cc2)N1c1ccc(F)cc1", "note": "[Form B, 1-(4-fluorophenyl)-3(R)-[3-(4-fluorophenyl)-3(S)-hydroxypropyl]-4(S)-(4-hydroxyphenyl)-2-azetidinone]", "values": [{"measurement": "Crystal form", "setting": "[2]; RH 0%, 14 days", "result": "Form A"}, {"measurement": "Water content by KF", "setting": "[2]; RH 0%, 14 days", "result": 0.1, "unit": "wt %"}, {"measurement": "Crystal form", "setting": "[2]; RH 20%, 7 days", "result": "Form A + ˜5% B*"}, {"measurement": "Water content by KF", "setting": "[2]; RH 20%, 7 days", "result": 0.2, "unit": "wt %"}, {"measurement": "Crystal form", "setting": "[2]; RH 40%, 14 days", "result": "Form B"}, {"measurement": "Water content by KF", "setting": "[2]; RH 40%, 14 days", "result": 4.0, "unit": "wt %"}, {"measurement": "Crystal form", "setting": "[2]; RH 80%, 14 days", "result": "Form B"}, {"measurement": "Water content by KF", "setting": "[2]; RH 80%, 14 days", "result": 4.3, "unit": "wt %"}, {"measurement": "Crystal form", "setting": "[2]; RH 100%, 14 days", "result": "Form B"}, {"measurement": "Water content by KF", "setting": "[2]; RH 100%, 14 days", "result": 4.4, "unit": "wt %"}, {"measurement": "Sample after pressing (crystal form)", "setting": "[3]", "result": "retains its crystalline form; also recorded: Form B"}, {"measurement": "SSA", "setting": "[8]; After micronization", "result": 6.8, "unit": "m^2/g"}, {"measurement": "SSA", "setting": "[8]; Before micronization", "result": 3.4, "unit": "m^2/g"}, {"measurement": "heat transformation result (crystal form by XRD)", "setting": "[1]; 45° C., 18 h", "result": "Form A"}, {"measurement": "heat transformation result (crystal form by XRD)", "setting": "[1]; 60° C., 2 h, atmospheric oven", "result": "Form A"}, {"measurement": "heat transformation result (crystal form by XRD)", "setting": "[1]; 90° C., 2 h, atmospheric oven", "result": "Form A"}, {"measurement": "heat transformation result (crystal form by XRD)", "setting": "[1]; 110° C., 2 h, atmospheric oven", "result": "Form A"}, {"measurement": "Maximum particle size", "setting": "[9]; After micronization", "result": 20, "unit": "μm"}, {"measurement": "Maximum particle size", "setting": "[9]; Before micronization", "result": 400, "unit": "μm"}, {"measurement": "estimated water content after micronization", "setting": "[4]; [12]", "result": "1-2 % by weight"}, {"measurement": "Form B converted to Form A during micronization", "setting": "[4]; 50 mm micronizer, 20 to 30 minutes, estimated by XRD and by KF", "result": 65, "unit": "%"}, {"measurement": "Form B content of dry sample after water slurry", "setting": "[7]; dried under vacuum at 45° C. for 18 hrs, remainder Form A", "result": "20-30 % by weight"}, {"measurement": "crystal form of wet sample after water slurry", "setting": "[7]; soft water, 4 h, room temperature, filtered and washed", "result": "Form B"}]}, {"compound": "O=C1[C@H](CC[C@H](O)c2ccc(F)cc2)[C@@H](c2ccc(O)cc2)N1c1ccc(F)cc1", "note": "[mixture of micronized Form A and B]", "values": [{"measurement": "Form B content after storage", "setting": "[6]", "result": 100, "unit": "%"}]}, {"compound": "O=C1[C@H](CC[C@H](O)c2ccc(F)cc2)[C@@H](c2ccc(O)cc2)N1c1ccc(F)cc1", "note": "[Ezetimibe, 1-(4-fluorophenyl)-3(R)-[3-(4-fluorophenyl)-3(S)-hydroxypropyl]-4(S)-(4-hydroxyphenyl)-2-azetidinone]", "values": [{"measurement": "stability at ambient temperature", "setting": "[10]", "result": "stable"}, {"measurement": "solubility", "setting": "Solubility of ezetimibe", "result": 10, "unit": "µg/mL"}, {"measurement": "solubility in ethanol, methanol, and acetone", "setting": "[11]; ethanol, methanol, acetone", "result": "freely to very soluble"}, {"measurement": "solubility in water", "setting": "[11]; water", "result": "practically insoluble"}]}]}
